Data published in patent US11555012B2 (Nimbus Artemis, Inc., priority 2018, dated 2023).
Where two headings read alike, the source gives them in different places.

How the values were obtained:
ACL [1] = target: T1, ACL (Homo sapiens (Human), UniProt P53396); assay: ADP-Glo Assay
Target sequence in this assay (P53396 other isoform, or with tags, fused parts or gaps isoform P53396-2): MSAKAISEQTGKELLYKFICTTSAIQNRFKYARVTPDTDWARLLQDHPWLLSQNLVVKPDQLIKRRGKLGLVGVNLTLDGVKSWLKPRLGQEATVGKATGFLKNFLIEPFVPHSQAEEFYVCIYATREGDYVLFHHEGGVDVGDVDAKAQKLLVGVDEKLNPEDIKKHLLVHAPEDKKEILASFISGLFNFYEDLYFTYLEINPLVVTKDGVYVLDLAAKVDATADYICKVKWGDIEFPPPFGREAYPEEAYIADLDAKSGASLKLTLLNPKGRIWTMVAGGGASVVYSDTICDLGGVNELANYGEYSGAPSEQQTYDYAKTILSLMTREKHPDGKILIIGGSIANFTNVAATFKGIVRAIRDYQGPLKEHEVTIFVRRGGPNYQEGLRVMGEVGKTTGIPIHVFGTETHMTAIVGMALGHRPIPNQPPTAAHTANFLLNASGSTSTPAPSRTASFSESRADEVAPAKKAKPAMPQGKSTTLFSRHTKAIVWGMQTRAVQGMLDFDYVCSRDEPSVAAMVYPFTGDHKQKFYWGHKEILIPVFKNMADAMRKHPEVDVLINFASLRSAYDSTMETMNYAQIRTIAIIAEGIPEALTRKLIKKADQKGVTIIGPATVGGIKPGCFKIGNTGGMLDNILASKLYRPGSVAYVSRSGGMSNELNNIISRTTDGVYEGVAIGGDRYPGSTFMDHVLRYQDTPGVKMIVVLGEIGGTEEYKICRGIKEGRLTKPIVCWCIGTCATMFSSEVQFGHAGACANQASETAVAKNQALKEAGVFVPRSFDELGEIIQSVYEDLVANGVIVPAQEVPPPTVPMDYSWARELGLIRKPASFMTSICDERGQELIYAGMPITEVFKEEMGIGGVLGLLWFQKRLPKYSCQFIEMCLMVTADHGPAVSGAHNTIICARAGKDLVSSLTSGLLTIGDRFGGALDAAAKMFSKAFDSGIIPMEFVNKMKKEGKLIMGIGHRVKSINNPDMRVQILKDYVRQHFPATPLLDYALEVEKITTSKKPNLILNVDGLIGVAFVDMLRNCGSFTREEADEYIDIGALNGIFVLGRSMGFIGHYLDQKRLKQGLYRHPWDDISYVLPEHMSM

ACL [2] = target: T1, ACL; assay: ACLY-MDH Coupled Assay
Target sequence in this assay (P53396 whole entry, species assumed): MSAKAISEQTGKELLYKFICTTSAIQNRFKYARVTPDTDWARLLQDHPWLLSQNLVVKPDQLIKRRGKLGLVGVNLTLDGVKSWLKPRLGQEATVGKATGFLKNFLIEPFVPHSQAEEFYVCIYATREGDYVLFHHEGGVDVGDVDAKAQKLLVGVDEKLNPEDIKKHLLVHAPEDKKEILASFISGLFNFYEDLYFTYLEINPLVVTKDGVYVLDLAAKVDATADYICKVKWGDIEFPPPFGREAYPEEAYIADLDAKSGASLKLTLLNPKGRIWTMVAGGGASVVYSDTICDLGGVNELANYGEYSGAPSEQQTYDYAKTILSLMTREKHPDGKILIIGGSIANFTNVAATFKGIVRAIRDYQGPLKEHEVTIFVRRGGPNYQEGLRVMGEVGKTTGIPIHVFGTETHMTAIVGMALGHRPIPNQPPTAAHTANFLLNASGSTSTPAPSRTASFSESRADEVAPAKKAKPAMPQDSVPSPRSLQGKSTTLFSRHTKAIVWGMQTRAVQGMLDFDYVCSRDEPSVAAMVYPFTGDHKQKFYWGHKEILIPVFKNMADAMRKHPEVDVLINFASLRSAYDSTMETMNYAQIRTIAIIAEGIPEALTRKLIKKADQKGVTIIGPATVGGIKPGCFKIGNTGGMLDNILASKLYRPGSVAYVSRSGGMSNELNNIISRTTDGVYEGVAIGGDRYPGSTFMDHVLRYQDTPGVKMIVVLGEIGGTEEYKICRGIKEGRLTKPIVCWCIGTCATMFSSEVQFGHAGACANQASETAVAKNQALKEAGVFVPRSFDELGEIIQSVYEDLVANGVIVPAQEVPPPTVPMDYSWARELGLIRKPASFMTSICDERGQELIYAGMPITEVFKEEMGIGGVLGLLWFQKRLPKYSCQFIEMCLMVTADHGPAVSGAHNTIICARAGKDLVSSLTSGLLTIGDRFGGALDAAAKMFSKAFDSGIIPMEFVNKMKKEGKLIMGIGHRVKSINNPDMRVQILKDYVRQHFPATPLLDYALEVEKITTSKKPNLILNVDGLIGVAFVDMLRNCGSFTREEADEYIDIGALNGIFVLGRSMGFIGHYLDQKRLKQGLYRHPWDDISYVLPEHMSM
Method: Compounds of the present invention were evaluated in an ACLY Coupled Assay.
The assay protocol for the Coupled Assay (below) was followed:
b) Add 1 μL cpds to 96 assay plate, Test cpd conc: 100/30/10 μM top dose, 3 folds dilution, 10+0+control (control: buffer without ACL+DMSO) points, 1000 rpm for 1 min, incubation at 25° C. for 60 min

HepG2 cells [3] = conditions: Homo sapiens, HepG2, read-out: ACLY HepG2 14C-Pyruvate Assay serum free IC50 FA (IC50) [μM]
HepG2 cells [4] = conditions: Homo sapiens, HepG2, read-out: ACLY HepG2 14C-Pyruvate Assay serum free IC50 Cholesterol (IC50) [μM]
Method: ACLY HepG2 ^14C-Pyruvate Incorporation Serum-Free Assay (IC50 Cholesterol and Fatty Acid Synthesis)
Compounds of the present invention were evaluated in a HepG2 ^14C-pyruvate incorporation assay. The protocol below was followed:
After 48 hours, change medium with fresh growth medium.
After 18 hours, replaced medium using 0.5 mL fresh medium (5.5 mM Glucose, without FBS, 1% PS, without Pyruvate) containing Compounds or 0.5% DMSO, incubated at 37° C., 5% CO2 for 1 hour.
Add 3 μci of [14C]-pyruvate per well to the cell samples were incubated at 37° C., 5% CO2 for 5 hours.
Medium was removed and placed into a 15 mL centrifuge tube. Add 0.5 mL of 0.1M NaOH to each well and then transfer the cell lysates into the corresponding 15 mL centrifuge tubes. 1.0 mL of EtOH and 0.17 mL 50% KOH were added to 15 mL tubes containing medium and cell suspensions, then shaking tube gently. […] Saponification 15 mL tubes containing medium and cell suspensions were incubated at 90° C. for 1 hour, then cooled to room temperature. […] Cholesterol Extraction 5 mL of petroleum ether was added per tube to extract Cholesterol, shaken vigorously, centrifuged at 1000 rpm for 5 min, and ˜5 mL of the petroleum ether layer was transferred to a new glass tube (18*180 mm). […] Acidification The samples in 15 mL tube were acidified directly with 1 mL concentrated HCl, make sure pH was below 1. […] Fatty Acids Extraction 5 mL of petroleum ether was added per tube, shaken vigorously, centrifuged at 1000 rpm for 5 min, 5 mL of the petroleum ether layer was transferred to the corresponding glass tube. […] Count The petroleum ether extracts were pooled and evaporated to dryness overnight. The residue from the petroleum ether fractions were resuspended in 500 μL of chloroform-hexane (1:1) containing 420 μg of linoleic acid as a carrier. Add 200 μL of resuspending (chloroform-hexane (1:1) containing 168 μg of linoleic acid) to 2 mL Ultima Gold™, after 30 min, count on a scintillation counter.

## COc1ccc(-c2ccccc2)cc1NS(=O)(=O)c1c(C)c(Cl)cc(Cl)c1O [I-1, 3,5-dichloro-2-hydroxy-N-(4-methoxy-[1,1′-biphenyl]-3-yl)-6-methylbenzenesulfonamide]
ACL [1]
  IC50: 50 to 500 nM
ACL [2]
  IC50: 50 to 500 nM
HepG2 cells [3]
  IC50: 1 to 10 µM
HepG2 cells [4]
  IC50: 1 to 5 µM

## COc1ccc(-c2ccc(F)cc2)cc1NS(=O)(=O)c1cc(Cl)cc(Cl)c1O [I-6, 3,5-dichloro-N-(4′-fluoro-4-methoxy-[1,1′-biphenyl]-3-yl)-2-hydroxybenzenesulfonamide]
ACL [1]
  IC50: 50 to 500 nM
ACL [2]
  IC50: 50 to 500 nM
HepG2 cells [3]
  IC50: > 10 µM
HepG2 cells [4]
  IC50: 1 to 5 µM

## COc1ccc(-c2cccs2)cc1NS(=O)(=O)c1cc(Cl)cc(Cl)c1O [I-9, 3,5-dichloro-2-hydroxy-N-(2-methoxy-5-(thiophen-2-yl)phenyl)benzenesulfonamide]
ACL [1]
  IC50: 50 to 500 nM
ACL [2]
  IC50: 50 to 500 nM
HepG2 cells [3]
  IC50: 1 to 10 µM
HepG2 cells [4]
  IC50: 1 to 5 µM

## COc1cc(-c2ccccc2)ccc1NS(=O)(=O)c1cc(Cl)cc(Cl)c1O [I-13, 3,5-dichloro-2-hydroxy-N-(3-methoxy-[1,1′-biphenyl]-4-yl)benzenesulfonamide]
ACL [1]
  IC50: 500 to 20000 nM
ACL [2]
  IC50: 500 to 30000 nM
HepG2 cells [3]
  IC50: 1 to 10 µM
HepG2 cells [4]
  IC50: 1 to 5 µM

## O=S(=O)(Nc1ccccc1OCc1ccccc1)c1cc(Cl)cc(Cl)c1O [I-15, N-(2-(benzyloxy)phenyl)-3,5-dichloro-2-hydroxybenzenesulfonamide]
ACL [1]
  IC50: 500 to 20000 nM
ACL [2]
  IC50: 500 to 30000 nM
HepG2 cells [3]
  IC50: 1 to 10 µM
HepG2 cells [4]
  IC50: 1 to 5 µM

## CN(C)C(=O)c1cc(Cl)c(O)c(S(=O)(=O)Nc2cc(-c3ccccc3)c(F)cc2F)c1 [I-83, 3-chloro-5-[(2,4-difluoro-5-phenylphenyl)sulfamoyl]-4-hydroxy-N,N-dimethylbenzamide]
HepG2 cells [3]
  IC50: > 10 µM
HepG2 cells [4]
  IC50: 1 to 5 µM

## CCOC(=O)c1cc(Cl)c(O)c(S(=O)(=O)Nc2cc(-c3cc4ccccc4s3)c(F)cc2F)c1 [I-505, ethyl 3-(N-(5-(benzo[b]thiophen-2-yl)-2,4-difluorophenyl)sulfamoyl)-5-chloro-4-hydroxybenzoate]
ACL [1]; read-out: ACL-ADP-Glo (IC50), 3 nM ACL, 15 μM ATP, 3 μM CoA, 300 μM Citrate
  IC50: < 50 nM
ACL [2]; read-out: ACL-MDH Coupled Assay (IC50), 8 nM ACL, 60 μM CoA Na2, 85 μM Citrate, 250 μM ATP, 250 μM NADH
  IC50: < 50 nM

## O=C(O)c1cc(Cl)c(O)c(S(=O)(=O)Nc2cc(-c3cc4ccccc4s3)c(F)cc2OC(F)(F)F)c1 [I-508, 3-(N-(5-(benzo[b]thiophen-2-yl)-4-fluoro-2-(trifluoromethoxy)phenyl)sulfamoyl)-5-chloro-4-hydroxybenzoic Acid]
ACL [1]
  IC50: 50 to 500 nM
ACL [2]
  IC50: 500 to 30000 nM

## O=S(=O)(Nc1cc(-c2ccccc2)ccc1OC(F)(F)F)c1cc(Cl)cc(Cl)c1O [I-509, 3,5-dichloro-2-hydroxy-N-(4-(trifluoromethoxy)-[1,1′-biphenyl]-3-yl)benzenesulfonamide]
ACL [1]
  IC50: 50 to 500 nM
ACL [2]
  IC50: 50 to 500 nM

## COc1cc(F)c(-c2cc3ccccc3s2)cc1NS(=O)(=O)c1cc(C(=O)O)cc(Cl)c1O [I-510]
ACL [1]
  IC50: 500 to 20000 nM
ACL [2]
  IC50: 500 to 30000 nM

## O=C(c1cncs1)N(c1ccc(Cl)cc1)S(=O)(=O)c1cc(Br)cc(Cl)c1O [I-511, N-((5-bromo-3-chloro-2-hydroxyphenyl)sulfonyl)-N-(4-chlorophenyl)thiazole-5-carboxamide]
ACL [1]
  IC50: 500 to 20000 nM
ACL [2]
  IC50: 500 to 30000 nM

## CC#Cc1cc(Cl)ccc1NS(=O)(=O)c1cc(Br)cc(Cl)c1O [I-512]
ACL [1]
  IC50: 500 to 20000 nM
ACL [2]
  IC50: 500 to 30000 nM

## CCN(c1ccc(Cl)cc1)S(=O)(=O)c1cc(Br)cc(Cl)c1O [I-513, 5-bromo-3-chloro-N-(4-chlorophenyl)-N-ethyl-2-hydroxybenzene Sulfonamide]
ACL [1]
  IC50: 500 to 20000 nM
ACL [2]
  IC50: 500 to 30000 nM

## O=S(=O)(c1cc(Br)cc(Cl)c1O)N(Cc1cncs1)c1ccc(Cl)cc1 [I-514, 5-bromo-3-chloro-N-(4-chlorophenyl)-2-hydroxy-N-(thiazol-5-ylmethyl)benzenesulfonamide]
ACL [1]
  IC50: 500 to 20000 nM
ACL [2]
  IC50: 500 to 30000 nM

## O=C(Nc1cc(-c2cc3ccccc3s2)ccc1C(=O)O)c1cc(Cl)cc(Cl)c1 [I-515, 4-(benzo[b]thiophen-2-yl)-2-(3,5-dichlorobenzamido)benzoic Acid]
ACL [1]
  IC50: 500 to 20000 nM
ACL [2]
  IC50: 500 to 30000 nM
